Laboratory results: patent US7923464B2, “Benzimidazole derivatives and their use for modulating the GABAA receptor complex” (Neurosearch A/S, priority 2005, dated 2011)

These molecules were tested against benzodiazepine modulatory unit (GABAA receptor complex), labelled with 3H-flunitrazepam (assay: In vitro inhibition of 3H-flunitrazepam (3H-FNM) binding). Settings: cerebral cortex membranes from male Wistar rats; 3H-FNM 1 nM; 40 min at 2° C.
Set-up: species or system rat
Procedure: In Vitro Inhibition of ^3H-flunitrazepam (^3H-FNM) Binding
The GABA recognition site and the benzodiazepine modulatory unit can selectively be labelled with ^3H-flunitrazepam.
Preparations are performed at 0-4° C. unless otherwise indicated. Cerebral cortex from male Wistar rats (150-200 g) is homogenised for 5-10 sec in 20 ml Tris-HCl (30 mM, pH 7.4) using an Ultra-Turrax homogeniser. The suspension is centrifuged at 27,000×g for 15 min and the pellet is washed three times with buffer (centrifuged at 27,000×g for 10 min). The washed pellet is homogenized in 20 ml of buffer and incubated on a water bath (37° C.) for 30 min to remove endogenous GABA and then centrifuged for 10 min at 27,000×g. The pellet is then homogenized in buffer and centrifuged for 10 min at 27,000×g. The final pellet is resuspended in 30 ml buffer and the preparation is frozen and stored at −20° C.
The membrane preparation is thawed and centrifuged at 2° C. for 10 min at 27,000×g. The pellet is washed twice with 20 ml 50 mM Tris-citrate, pH 7.1 using an Ultra-Turrax homogeniser and centrifuged for 10 min at 27,000×g. The final pellet is resuspended in 50 mM Tris-citrate, pH 7.1 (500 ml buffer per g of original tissue), and then used for binding assays. Aliquots of 0.5 ml tissue are added to 25 μl of test solution and 25 μl of ^3H-FNM (1 nM, final concentration), mixed and incubated for 40 min at 2° C. Non-specific binding is determined using Clonazepam (1 μM, final concentration). After incubation the samples are added 5 ml of ice-cold buffer and poured directly onto Whatman GF/C glass fibre filters under suction and immediately washed with 5 ml ice-cold buffer. The amount of radioactivity on the filters is determined by conventional liquid scintillation counting. Specific binding is total binding minus non-specific binding.
Co is specific binding in control assays, and
Cx is the specific binding in the test assay.
(The calculations assume normal mass-action kinetics).

SMILES	IC50 [nM]
CC(N)c1ccc2c(c1)ncn2-c1cccc(-c2ccccc2)c1 (centres unmarked) [Compound 3a, 1-(1-Biphenyl-3-yl-1H-benzoimidazol-5-yl)-ethylamine]	73
COc1ccccc1-c1cccc(-n2cnc3cc([C@@H](C)NC(C)=O)ccc32)c1 [Compound 12b, N-{(R)-1-[1-(2′-Methoxy-biphenyl-3-yl)-1H-benzoimidazol-5-yl]-ethyl}-acetamide]	60
COc1ccccc1-c1cccc(-n2cnc3cc([C@H](C)NC(C)=O)ccc32)c1 [Compound 12g, N-{(S)-1-[1-(2′-Methoxy-biphenyl-3-yl)-1H-benzoimidazol-5-yl]-ethyl}-acetamide]	2.6
COc1ccccc1-c1cccc(-n2cnc3cc([C@@H](C)N)ccc32)c1 [Compound 12o, (R)-1-[1-(2′-Methoxy-biphenyl-3-yl)-1H-benzoimidazol-5-yl]-ethylamine]	6.7
C[C@@H](N)c1ccc2c(c1)ncn2-c1cccc(-c2ccccc2C#N)c1 [Compound 12r, 3′-[5-((R)-1-Amino-ethyl)-benzoimidazol-1-yl]-biphenyl-2-carbonitrile]	3.7
